Test results from the NIST ThermoML archive (doi:10.1016/j.fluid.2019.06.022).
Several values for one entry are separate records, joined by “and”; a condition that tells them apart may be missing. Identical values can stand only once.

Assay: xn = mol fraction of the nth substance listed
Settings: Liquid; for mass density: Bellows volumetry; for viscosity: Falling or rolling sphere viscometry

C=C [ethene] + Cc1ccccc1
Settings | mass density, x1 = 0.1131 [kg/m3] | mass density, x1 = 0.3241 | viscosity, x1 = 0.1131 | viscosity, x1 = 0.3241
295.4 K, 2700 kPa | 815.8 | – | 0.474 mPa·s | –
295.4 K, 2800 kPa | 815.8 | – | 0.474 mPa·s | –
295.4 K, 11400 kPa | 823.1 | – | 0.508 mPa·s | –
295.4 K, 11500 kPa | 823.1 | – | 0.509 mPa·s | –
295.4 K, 20400 kPa | 829.9 | – | 0.551 mPa·s | –
295.4 K, 20500 kPa | 829.9 | – | 0.548 mPa·s | –
295.4 K, 36200 kPa | 840.8 | – | 0.614 mPa·s and 0.615 mPa·s | –
298 K, 3400 kPa | – | 754.7 kg/m3 | – | 0.309 mPa·s
298 K, 3700 kPa | – | 754.7 kg/m3 | – | 0.312 mPa·s
298 K, 10000 kPa | – | 767.2 kg/m3 | – | 0.328 mPa·s and 0.332 mPa·s
298 K, 22000 kPa | – | 778.9 kg/m3 | – | 0.36 mPa·s and 0.364 mPa·s
298 K, 22300 kPa | – | 778.9 kg/m3 | – | 0.362 mPa·s
298 K, 22400 kPa | – | 778.9 kg/m3 | – | 0.366 mPa·s
298 K, 35100 kPa | – | 789.8 kg/m3 | – | 0.402 mPa·s and 0.398 mPa·s
298 K, 48000 kPa | – | 799.7 kg/m3 | – | 0.434 mPa·s and 0.439 mPa·s
298 K, 68400 kPa | – | 813.3 kg/m3 | – | 0.496 mPa·s
298 K, 68500 kPa | – | 813.3 kg/m3 | – | 0.5 mPa·s
322.1 K, 4200 kPa | 792.1 | – | 0.36 mPa·s and 0.361 mPa·s | –
322.1 K, 10200 kPa | 798.1 | – | 0.376 mPa·s and 0.377 mPa·s | –
322.1 K, 21200 kPa | 808 | – | 0.415 mPa·s | –
322.1 K, 34400 kPa | 819.1 | – | 0.442 mPa·s | –
322.1 K, 34500 kPa | 819.1 | – | 0.452 mPa·s | –
322.1 K, 48100 kPa | 828.1 | – | 0.495 mPa·s | –
322.1 K, 48200 kPa | 828.5 | – | 0.498 mPa·s and 0.497 mPa·s | –
322.1 K, 65900 kPa | 840 | – | 0.556 mPa·s and 0.55 mPa·s | –
322.2 K, 7200 kPa | – | 739.3 kg/m3 | – | 0.25 mPa·s and 0.253 mPa·s
322.2 K, 14700 kPa | – | 748.2 kg/m3 | – | 0.268 mPa·s and 0.27 mPa·s
322.2 K, 21700 kPa | – | 756.1 kg/m3 | – | 0.288 mPa·s
322.2 K, 21800 kPa | – | 756.1 kg/m3 | – | 0.283 mPa·s
322.2 K, 34300 kPa | – | 768.4 kg/m3 | – | 0.313 mPa·s
322.2 K, 34500 kPa | – | 768.4 kg/m3 | – | 0.317 mPa·s
322.2 K, 48300 kPa | – | 780.5 kg/m3 | – | 0.344 mPa·s and 0.348 mPa·s
322.2 K, 68800 kPa | – | 795.9 kg/m3 and 795.8 kg/m3 | – | 0.391 mPa·s and 0.397 mPa·s
368.1 K, 6800 kPa | – | 692.1 kg/m3 | – | 0.171 mPa·s and 0.169 mPa·s
368.1 K, 13800 kPa | – | 704 kg/m3 | – | 0.182 mPa·s
368.1 K, 13900 kPa | – | 704 kg/m3 | – | 0.185 mPa·s
368.1 K, 26500 kPa | – | 721.7 kg/m3 and 720.9 kg/m3 | – | 0.205 mPa·s and 0.208 mPa·s
368.1 K, 26600 kPa | – | 720.8 kg/m3 and 721.6 kg/m3 | – | 0.207 mPa·s and 0.208 mPa·s
368.1 K, 41800 kPa | – | 736.7 kg/m3 | – | 0.234 mPa·s
368.1 K, 42100 kPa | – | 736.7 kg/m3 | – | 0.235 mPa·s
368.1 K, 54100 kPa | – | 749.3 kg/m3 | – | 0.254 mPa·s and 0.255 mPa·s
368.1 K, 54300 kPa | – | 749.3 kg/m3 | – | 0.253 mPa·s and 0.256 mPa·s
368.1 K, 68200 kPa | – | 761.9 kg/m3 | – | 0.278 mPa·s and 0.279 mPa·s
369.3 K, 4200 kPa | 748.1 | – | 0.235 mPa·s | –
369.3 K, 4300 kPa | 748.1 | – | 0.236 mPa·s | –
369.3 K, 10200 kPa | 755.4 | – | 0.251 mPa·s | –
369.3 K, 10300 kPa | 755.4 | – | 0.25 mPa·s | –
369.3 K, 20700 kPa | 767.5 | – | 0.273 mPa·s | –
369.3 K, 20800 kPa | 767.5 | – | 0.273 mPa·s | –
369.3 K, 34800 kPa | 781.7 | – | 0.305 mPa·s and 0.304 mPa·s | –
369.3 K, 48700 kPa | 794.3 | – | 0.335 mPa·s | –
369.3 K, 48800 kPa | 794.3 | – | 0.335 mPa·s | –
369.3 K, 68400 kPa | 809.5 | – | 0.382 mPa·s | –
369.3 K, 68500 kPa | 809.5 | – | 0.379 mPa·s | –
435.9 K, 15500 kPa | – | 638 kg/m3 | – | 0.126 mPa·s
435.9 K, 15900 kPa | – | 637.9 kg/m3 | – | 0.126 mPa·s
435.9 K, 27600 kPa | – | 662 kg/m3 | – | 0.146 mPa·s
435.9 K, 27700 kPa | – | 662 kg/m3 | – | 0.144 mPa·s
435.9 K, 41800 kPa | – | 685.4 kg/m3 | – | 0.165 mPa·s
435.9 K, 42000 kPa | – | 685.3 kg/m3 and 685.5 kg/m3 | – | 0.168 mPa·s and 0.164 mPa·s
435.9 K, 42200 kPa | – | 685.4 kg/m3 | – | 0.166 mPa·s
435.9 K, 56000 kPa | – | 703.4 kg/m3 | – | 0.192 mPa·s
435.9 K, 56200 kPa | – | 703.4 kg/m3 | – | 0.188 mPa·s
435.9 K, 68400 kPa | – | 716.8 kg/m3 | – | 0.202 mPa·s
435.9 K, 68500 kPa | – | 716.8 kg/m3 | – | 0.199 mPa·s
437 K, 3900 kPa | 678.2 | – | 0.155 mPa·s | –
437 K, 4200 kPa | 678.2 | – | 0.153 mPa·s | –
437 K, 13700 kPa | 699 | – | 0.173 mPa·s | –
437 K, 14100 kPa | 699.1 | – | 0.172 mPa·s | –
437 K, 27600 kPa | 721 | – | 0.196 mPa·s | –
437 K, 27800 kPa | 721 | – | 0.197 mPa·s | –
437 K, 41400 kPa | 738.3 | – | 0.22 mPa·s | –
437 K, 41500 kPa | 738.3 | – | 0.22 mPa·s | –
437 K, 42400 kPa | 740 | – | 0.222 mPa·s | –
437 K, 42700 kPa | 740 | – | 0.224 mPa·s | –
437 K, 54200 kPa | 750.9 | – | 0.242 mPa·s | –
437 K, 54300 kPa | 750.9 | – | 0.243 mPa·s | –
437 K, 67900 kPa | 763.9 | – | 0.264 mPa·s | –
522 K, 23100 kPa | – | 555.7 kg/m3 | – | 0.097 mPa·s
522 K, 23200 kPa | – | 555.5 kg/m3 | – | 0.095 mPa·s
522 K, 29400 kPa | – | 574.4 kg/m3 and 574.7 kg/m3 and 574.6 kg/m3 | – | 0.102 mPa·s and 0.104 mPa·s
522 K, 29500 kPa | – | 574.4 kg/m3 | – | 0.103 mPa·s
522 K, 38300 kPa | – | 597 kg/m3 [middle of 4 runs] | – | 0.114 mPa·s [middle of 4 runs]
522 K, 50700 kPa | – | 621.2 kg/m3 and 620.9 kg/m3 | – | 0.125 mPa·s and 0.126 mPa·s
522 K, 50800 kPa | – | 621.2 kg/m3 | – | 0.125 mPa·s
522 K, 50900 kPa | – | 621.2 kg/m3 | – | 0.123 mPa·s
522 K, 68400 kPa | – | 645.9 kg/m3 | – | 0.144 mPa·s
522 K, 68700 kPa | – | 646 kg/m3 | – | 0.142 mPa·s
522.7 K, 9400 kPa | 581.8 | – | 0.101 mPa·s | –
522.7 K, 9800 kPa | 581.8 | – | 0.103 mPa·s | –
522.7 K, 31600 kPa | 643.4 | – | 0.137 mPa·s | –
522.7 K, 32000 kPa | 643.4 | – | 0.131 mPa·s | –
522.7 K, 32200 kPa | 643.5 | – | 0.132 mPa·s | –
522.7 K, 41200 kPa | 659.4 | – | 0.15 mPa·s | –
522.7 K, 41700 kPa | 659.4 | – | 0.145 mPa·s | –
522.7 K, 56200 kPa | 679.5 | – | 0.167 mPa·s | –
522.7 K, 56300 kPa | 679.4 | – | 0.162 mPa·s | –
522.7 K, 67600 kPa | 693.8 | – | 0.179 mPa·s | –
522.7 K, 68100 kPa | 693.8 | – | 0.177 mPa·s | –
